From US7709486B2, “CXCR4 antagonists” (Genzyme Corporation, priority 1998, dated 2010)

Tested on: collagen-induced arthritis (CIA)
Description: The experiments were performed in 8- to 12-week old mice, but in each experiment, the mutant and wild-type mice were age-matched with a 5 day limit. The male to female ratio was kept between 0.8 and 1.3 in each experimental group.
Native chicken collagen type II (EPC, Owensvillle, Mo.) was dissolved in 0.05 M acetic acid at 2 mg/ml by stirring overnight at 6° C., and emulsified in an equal volume of incomplete (IFA) or complete Freund's adjuvant (CFA) containing 1.5 mg/ml heat killed Mycobacterium butyricum (Difco, Detroit, Mich.). Mice were sensitized with a single 100 μl intradermal injection of the emulsion at the base of the tail. Mice were examined daily for signs of arthritis. The disease severity was recorded following a scoring system for each limb. Score 0: normal; score 1: redness and/or swelling in one joint; score 2: redness and/or swelling in more than one joint; score 3: redness and/or welling in the entire paw; score 4: deformity and/or ankylosis.
Spleens and fore and hind limbs were fixed in buffered saline—B5fixative (10% formalin with quicksilver). […] Limbs were subsequently decalcified overnight with formic acid. […] Severity of arthritis was evaluated using three parameters: infiltration of mono- and polymorphonuclear cells, hyperplasia of the synovium and parmus formation. Each parameter was scored on a scale from 0 to 3 (absent; weak, moderate and severe).

Question: How did the “Body weight loss compared with control animals” value (collagen-injected mice, treated) turn out when `c1cc(CN2CCCNCCNCCCNCC2)ccc1CN1CCCNCCNCCCNCC1` [AMD3100, 1,1′-[1,4-phenylenebis(methylene)]bis-1,4,8,11-tetraazacyclotetradecane] was run?
Answer: did not demonstrate any significant body weight loss

Question: What about the “Time until the single affected treated animal developed arthritic pathology” value (post-treatment) of the same molecule?
Answer: > 20 days
